Laboratory results taken from patent US12269831B2, “Modulators of cystic fibrosis transmembrane conductance regulator” (Vertex Pharmaceuticals Incorporated, priority 2020, dated 2025).
Where two headings read alike, the source gives them in different places.

How the values were obtained:
[1] = 14-membered ring
[2] = biological target: T1, CFTR (F508del/MF-HBE cells) (Homo sapiens, UniProt P13569, DEL508-508); test: Ussing chamber assay of CFTR-mediated short-circuit currents (potentiator identification); assay type: cell-based; settings: CFTR-mediated Isc, 18-24 h incubation at 37° C. with 10 μM (14S)-8-[3-(2-{dispiro[2.0.2.1]heptan-7-yl}ethoxy)-1H-pyrazol-1-yl]-... corrector, 20% human serum
T1 construct: human bronchial epithelial (HBE) cells derived from CF subjects heterozygous for F508del and a minimal function CFTR mutation (F508del/MF-HBE); endogenous in cells; host or cells: primary human bronchial epithelial (HBE) cells from CF subjects, genotype F508del/minimal function
T1 sequence (P13569 with tags, fused parts or gaps DEL508-508): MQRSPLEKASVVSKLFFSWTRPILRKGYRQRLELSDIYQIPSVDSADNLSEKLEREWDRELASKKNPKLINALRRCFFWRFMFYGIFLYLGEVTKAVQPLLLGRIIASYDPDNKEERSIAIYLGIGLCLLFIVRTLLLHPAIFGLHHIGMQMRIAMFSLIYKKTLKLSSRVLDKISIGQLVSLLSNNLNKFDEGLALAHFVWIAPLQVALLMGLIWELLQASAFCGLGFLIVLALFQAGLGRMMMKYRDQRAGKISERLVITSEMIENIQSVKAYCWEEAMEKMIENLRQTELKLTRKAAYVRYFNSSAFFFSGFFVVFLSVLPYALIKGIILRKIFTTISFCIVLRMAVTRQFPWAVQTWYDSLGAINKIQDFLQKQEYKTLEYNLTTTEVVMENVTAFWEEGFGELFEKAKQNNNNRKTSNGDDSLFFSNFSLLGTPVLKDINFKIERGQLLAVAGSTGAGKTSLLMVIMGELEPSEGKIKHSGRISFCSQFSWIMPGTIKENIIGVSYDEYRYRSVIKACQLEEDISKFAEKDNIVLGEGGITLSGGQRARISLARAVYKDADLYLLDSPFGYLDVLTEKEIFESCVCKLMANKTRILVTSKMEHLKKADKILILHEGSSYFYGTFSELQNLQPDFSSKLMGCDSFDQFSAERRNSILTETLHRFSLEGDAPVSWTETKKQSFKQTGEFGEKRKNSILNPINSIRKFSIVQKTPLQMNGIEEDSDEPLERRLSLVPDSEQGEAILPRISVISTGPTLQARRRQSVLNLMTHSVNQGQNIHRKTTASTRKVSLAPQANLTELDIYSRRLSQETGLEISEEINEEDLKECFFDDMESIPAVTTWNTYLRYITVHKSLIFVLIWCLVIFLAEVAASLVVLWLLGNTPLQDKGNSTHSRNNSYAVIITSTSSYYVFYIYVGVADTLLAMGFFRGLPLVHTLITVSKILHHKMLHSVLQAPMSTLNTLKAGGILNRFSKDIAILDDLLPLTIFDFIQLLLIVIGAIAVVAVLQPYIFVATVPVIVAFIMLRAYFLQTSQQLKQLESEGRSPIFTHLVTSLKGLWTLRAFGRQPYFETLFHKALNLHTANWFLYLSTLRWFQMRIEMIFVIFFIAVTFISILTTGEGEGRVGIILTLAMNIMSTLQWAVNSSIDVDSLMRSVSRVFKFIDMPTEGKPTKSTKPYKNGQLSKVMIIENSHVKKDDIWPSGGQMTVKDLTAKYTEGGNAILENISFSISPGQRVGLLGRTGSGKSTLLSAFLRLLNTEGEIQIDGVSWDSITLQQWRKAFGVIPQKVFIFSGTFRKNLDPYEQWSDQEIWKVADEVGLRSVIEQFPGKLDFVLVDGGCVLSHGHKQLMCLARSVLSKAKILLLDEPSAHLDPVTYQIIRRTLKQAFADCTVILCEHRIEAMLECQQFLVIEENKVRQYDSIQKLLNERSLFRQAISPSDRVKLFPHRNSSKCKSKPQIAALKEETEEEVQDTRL
Experimental: Ussing Chamber Assay of CFTR-Mediated Short-Circuit Currents
Ussing chamber experiments were performed using human bronchial epithelial (HBE) cells derived from CF subjects heterozygous for F508del and a minimal function CFTR mutation (F508del/MF-HBE) and cultured as previously described (Neuberger T, Burton B, Clark H, Van Goor F Methods Mol Biol 2011:741:39-54). After four days the apical media was removed, and the cells were grown at an air liquid interface for >14 days prior to use.
To isolate the CFTR-mediated short-circuit (Isc) current, F508del/MF-HBE grown on Costar® Snapwell™ cell culture inserts were mounted in an Ussing chamber and the transepithelial ISC was measured under voltage-clamp recording conditions (Vhold=0 mV) at 37° C. The basolateral solution contained (in mM) 145 NaCl, 0.83 K2HPO4, 3.3 KH2PO4, 1.2 MgCl2, 1.2 CaCl2, 10 Glucose, 10 HEPES (pH adjusted to 7.4 with NaOH) and the apical solution contained (in mM) 145 NaGluconate, 1.2 MgCl2, 1.2 CaCl2, 10 glucose, 10 HEPES (pH adjusted to 7.4 with NaOH) and 30 μM amiloride to block the epithelial sodium channel. Forskolin (20 μM) was added to the apical surface to activate CFTR, followed by apical addition of a CFTR inhibitor cocktail consisting of BPO, GlyH-101 and CFTR inhibitor 172 (each at 20 μM final assay concentration) to specifically isolate CFTR currents. The CFTR-mediated Isc (μA/cm^2) for each condition was determined from the peak forskolin response to the steady-state current following inhibition.
Identification of Potentiator Compounds
The activity of the CFTR potentiator compounds on the CFTR-mediated Isc was determined in Ussing chamber studies as described above. The F508del/MF-HBE cell cultures were incubated with the potentiator compounds at a range of concentrations in combination with 10 μM (14S)-8-[3-(2-{dispiro[2.0.2.1]heptan-7-yl}ethoxy)-1H-pyrazol-1-yl]-12,12-dimethyl-2λ^6-thia-3,9,11,18,23-pentaazatetracyclo[17.3.1.111,14.05,10]tetracosa-1(22),5,7,9,19(23),20-hexaene-2,2,4-trione for 18-24 hours at 37° C. and in the presence of 20% human serum. The concentration of potentiator compounds and (14S)-8-[3-(2-{dispiro[2.0.2.1]heptan-7-yl}ethoxy)-1H-pyrazol-1-yl]-12,12-dimethyl-2λ^6-thia-3,9,11,18,23-pentaazatetracyclo[17.3.1.111,14.05,10]tetracosa-1(22),5,7,9,19(23),20-hexaene-2,2,4-trione used during the 18-24 hours incubations was kept constant throughout the Ussing chamber measurement of the CFTR-mediated Isc to ensure compounds were present throughout the entire experiment. The efficacy and potency of the putative F508del potentiators was compared to that of the known Vertex potentiator, ivacaftor (N-[2,4-bis(1,1-dimethylethyl)-5-hydroxyphenyl]-1,4-dihydro-4-oxoquinoline-3-carboxamide).

Compound: C[C@@H]1CCCOCC(OCc2ccccc2)(C(F)(F)F)C2=NN=C(O2)c2nc(c(C(F)(F)F)cc2N(C(=O)OC(C)(C)C)C(=O)OC(C)(C)C)O1 (stereo partly drawn)
- ring closure, isolated yield ([1]; from C[C@H](O)CCCOCC(OCc1ccccc1)(c1nnc(-c2nc(O)c(C(F)(F)F)cc2N(C(=O)OC(C)(C)C)C(=O)OC(C)(C)C)o1)C(F)(F)F, ether bond, PPh3/DIAD, toluene, 6.1 mM, 6.0 h): 59%

Compound: CCC1CCC=CC[C@](OCc2ccccc2)(C(F)(F)F)C2=NN=C(O2)c2nc(c(C(F)(F)F)cc2N(C(=O)OC(C)(C)C)C(=O)OC(C)(C)C)O1 (mixture of isomers)
- ring closure, isolated yield ([1]; from C=CCCC(CC)Oc1nc(-c2nnc([C@@](CC=C)(OCc3ccccc3)C(F)(F)F)o2)c(N(C(=O)OC(C)(C)C)C(=O)OC(C)(C)C)cc1C(F)(F)F, rcm bond, Zhan-1B, DCE, 5.4 mM, 70.0 °C): 91%

Compound: CC(C)(C)OC(=O)N(C(=O)OC(C)(C)C)c1cc(C(F)(F)F)c2nc1-c1nnc(o1)[C@@](OCc1ccccc1)(C(F)(F)F)CCC=CC[C@H](COCc1ccccc1)O2 (mixture of isomers)
- ring closure, isolated yield ([1]; from C=CCC[C@@](OCc1ccccc1)(c1nnc(-c2nc(O[C@H](CC=C)COCc3ccccc3)c(C(F)(F)F)cc2N(C(=O)OC(C)(C)C)C(=O)OC(C)(C)C)o1)C(F)(F)F, rcm bond, Zhan-1B, DCE, 3.72 mM, 60.0 °C, 2.5 h): 46%

Compound: C[C@@H]1CCC=CC(F)(F)C(OCc2ccccc2)C2=NN=C(O2)c2nc(c(C(F)(F)F)cc2[N+](=O)[O-])O1 (mixture of isomers)
- ring closure, isolated yield ([1]; from C=CCC[C@@H](C)Oc1nc(-c2nnc(C(OCc3ccccc3)C(F)(F)C=C)o2)c([N+](=O)[O-])cc1C(F)(F)F, rcm bond, Grubbs II, DCE, 1.8 mM, 75.0 °C, 0.92 h): 30%

Compound: CC(C)C1CC=CCC[C@](OCc2ccccc2)(C(F)(F)F)C2=NN=C(O2)c2nc(c(C(F)(F)F)cc2N(C(=O)OC(C)(C)C)C(=O)OC(C)(C)C)O1 (mixture of isomers)
- ring closure, isolated yield ([1]; from C=CCC[C@@](OCc1ccccc1)(c1nnc(-c2nc(OC(CC=C)C(C)C)c(C(F)(F)F)cc2N(C(=O)OC(C)(C)C)C(=O)OC(C)(C)C)o1)C(F)(F)F, rcm bond, Zhan-1B, DCE, 2.09 mM, 60.0 °C, 6.0 h): 61%

Compound: C[C@H]1Oc2nc(c(NC(=O)OC(C)(C)C)cc2C(F)(F)F)C2=NN=C(O2)[C@@](OCc2ccccc2)(C(F)(F)F)CC=CCC1OCc1ccccc1 (mixture of isomers)
- ring closure, isolated yield ([1]; from C=CCC(OCc1ccccc1)[C@@H](C)Oc1nc(-c2nnc([C@@](CC=C)(OCc3ccccc3)C(F)(F)F)o2)c(NC(=O)OC(C)(C)C)cc1C(F)(F)F, rcm bond, Zhan-1B, DCE, 6.94 mM, 70.0 °C, 48.0 h): 56%

Compound: C[C@@H]1CC=CCC[C@](OCc2ccccc2)(C(F)(F)F)C2=NN=C(O2)c2nc(c(C(F)F)cc2NC(=O)OC(C)(C)C)O1 (mixture of isomers)
- ring closure, isolated yield ([1]; from C=CCC[C@@](OCc1ccccc1)(c1nnc(-c2nc(O[C@H](C)CC=C)c(C(F)F)cc2NC(=O)OC(C)(C)C)o1)C(F)(F)F, rcm bond, Zhan-1B, DCE, 3.0 mM, 60.0 °C, 2.0 h): 26%

Compound: C[C@@H]1CC=CCc2cn(Cc3ccccc3)nc2C2=NN=C(O2)c2nc(c(C(F)(F)F)cc2NC(=O)OC(C)(C)C)O1 (mixture of isomers)
- ring closure, isolated yield ([1]; from C=CCc1cn(Cc2ccccc2)nc1-c1nnc(-c2nc(O[C@H](C)CC=C)c(C(F)(F)F)cc2NC(=O)OC(C)(C)C)o1, rcm bond, Zhan-1B, DCE, 2.9 mM, 70.0 °C, 2.0 h): 37%

Compound: Nc1cc(C(F)(F)F)c2nc1-c1nnc(o1)[C@@](O)(C(F)(F)F)CCCCCC(Cc1ccc(F)cc1)O2 (single isomer, unassigned) [Compound 49]
- EC50 [2]: < 500 nM

Compound: Nc1cc(C(F)(F)F)c2nc1-c1nnc(o1)[C@@](O)(C(F)(F)F)CCCCCCO2 [Compound 5, (6R)-17-amino-6,15-bis(trifluoromethyl)-13,19-dioxa-3,4,18-triazatricyclo[12.3.1.12,5]nonadeca-1(18),2,4,14,16-pentaen-6-ol]
- EC50 [2]: < 500 nM

Compound: CC1(C)CCCC[C@](O)(C(F)(F)F)C2=NN=C(O2)c2nc(c(C(F)(F)F)cc2N)OC1 [Compound 61, (6R)-17-amino-11,11-dimethyl-6,15-bis(trifluoromethyl)-13,19-dioxa-3,4,18-triazatricyclo[12.3.1.12,5]nonadeca-1(18),2,4,14,16-pentaen-6-ol]
- EC50 [2]: < 500 nM

Compound: Nc1cc(C(F)(F)F)c2nc1-c1nnc(o1)[C@@](O)(C(F)(F)F)CCCCC[C@H](CO)O2 [Compound 36, (6R,12R)-17-amino-12-(hydroxymethyl)-6,15-bis(trifluoromethyl)-13,19-dioxa-3,4,18-triazatricyclo[12.3.1.12,5]nonadeca-1(18),2,4,14,16-pentaen-6-ol]
- EC50 [2]: < 500 nM

Compound: C[C@H]1Oc2nc(c(N)cc2C(F)(F)F)C2=NN=C(O2)[C@@](O)(C(F)(F)F)CCCCC1O (single isomer, unassigned) [Compound 40]
- EC50 [2]: < 500 nM

Compound: CC1CCC(O)(C(F)(F)F)C2=NN=C(O2)c2nc(c(C(F)(F)F)cc2N)Oc2cccc1c2 (single isomer, unassigned) [Compound 30, 19-amino-9-methyl-6,17-bis(trifluoromethyl)-15,22-dioxa-3,4,20-triazatetracyclo[14.3.1.12,5.110,14]docosa-1(20),2,4,10(21),11,13,16,18-octaen-6-ol]
- EC50 [2]: < 500 nM

Compound: Nc1cc(C(F)(F)F)c2nc1-c1nnc(o1)[C@@](O)(C(F)(F)F)CCCCC[C@@H](CO)O2 [Compound 37, (6R,12S)-17-amino-12-(hydroxymethyl)-6,15-bis(trifluoromethyl)-13,19-dioxa-3,4,18-triazatricyclo[12.3.1.12,5]nonadeca-1(18),2,4,14,16-pentaen-6-ol]
- EC50 [2]: < 500 nM
